Laboratory results taken from patent US8258130B2 (Sanofi, priority 2007, dated 2012).

Assays:
[1] = biological target: human h-PGDS (Homo sapiens, UniProt O60760); assay: Enzyme Immunoassay (EIA) method, inhibition of hematopoietic PGD2 synthase; format: biochemical; settings: EIA assay, PGD2 formed from PGH2 by human h-PGDS
Experimental: Assay 2: Enzyme Immunoassay (EIA) Method
• a. Preparation of 0.1M K2HPO4/KH2PO4 buffer (pH 7.4) • Prepare 0.1 M KH2PO4 from 1M KH2PO4 (Sigma, Cat# P-8709) • Prepare 0.1 M K2HPO4 from powder of K2HPO4 (Fisher, BP363-500) • Mix 0.1 M K2HPO4 with 0.1 M KH2PO4 to adjust pH to 7.4. • b. Preparation of 0.5% γ-globulin • Add 0.1 g of γ-globulin (Sigma, Cat# G-5009) to 20 mL 0.1 M K2HPO4/KH2PO4 buffer (pH 7.4) and make 1-mL/vial aliquots and store in −80° C. • c. Preparation of 100 mM GSH • Add 307 mg of GSH (Sigma, Cat# G-6529) to 10 mL 0.1 M K2HPO4/KH2PO4 buffer (pH 7.4) and store at −80° C. • d. Preparation of Reaction buffer: • 198 mL of 0.1M K2HPO4/KH2PO4 buffer (pH 7.4) • 2 mM GSH—Prepared from 100 mM GSH • 0.4 g Glycerol • 2 mL of 0.5% γ-globulin • Add 0.4 g of glycerol and 2 mL of 0.5% γ-globulin to 198 mL of 0.1 M K2HPO4/KH2PO4 • buffer (pH7.4). • Add 0.4 mL of 100 mM GSH to 19.6 mL reaction buffer before the assay (enough for two 96-well plates). • e. Preparation of FeCl2/citric acid stopping solution: (8 mg/mL FeCl2, 0.1 M citric acid) • Add 40 mg fresh FeCl2 (IGN, Cat# 158046) to 5 mL 0.1 M citric acid (Sigma, Cat# C0759). • f. Preparation of MOX reagent: • 10% EtOH—Add 1 mL of EtOH to 9 mL of ultra pure H2O • Dissolve 0.1 g of methoxyl amine (Cayman, Cat# 400036/) in 10% EtOH (10 mL). • Add 0.82 g of sodium acetate (Cayman, Cat#400037) to MOX solution and dissolve. II. Materials and Method • Dimethylsulfoxide (DMSO; Sigma; Cat# D2650) • Prostaglandin D2-MOX express EIA kit (Caymen Chemical, Catalog No. 500151)
Before the assay, cool down 10 mL of acetone in polypropylene tubes and empty 96 well plates in ice. All the procedures except compound dilution are performed on ice.
• 1. Dilute compound in DMSO
• 2. Dilute 2 μL of each above concentration of compound to 38 μL of reaction buffer in 96-well plates and mix. IV. Enzyme and Substrate Solution Preparation • 1 Preparation of 0.39 ng/μL enzyme solution (0.35 ng/μL at final after compound addition). • Mix 4 μL of 4 mg/mL human h-PGDS with 396 μL of reaction buffer (to give enzyme concentration 40 μg/mL). Add 46.8 μL of 40 μg/mL h-PGDS to 4.753 mL of reaction buffer to give a total volume of 4.8 mL • 2. Preparation of Substrate Solution (PGH2): Add 0.375 mL of 0.1 mg/mL of PGH2 to 1.625 mL acetone. V. Enzyme Reaction: • 1. Add 60 μL of enzyme solution to compound well and positive control (without compound) in U-bottom polypropylene plate on ice. • 2. Add 60 μL of reaction buffer and 6.6 μL of 5% DMSO in reaction buffer into negative control wells in the plate. • 3. Add 6.6 μL of diluted compound in reaction buffer to the compound wells and mix. • 4. Add 6.6 μL of 5% DMSO in reaction buffer to the positive control well. • 5. Incubate the plate in ice for at least 30 min. • 6. Add 20 μL of substrate (PGH2) solution to compound, negative and positive control wells in the U-bottom 96 well plate on ice. • 7. Dry the plate in cold room for about 25-28 min. • 8. Pipette 45 μL of enzyme solution (above) into 96-wells with dried PGH2 and mix 3 times. Incubate on the ice for 1 min. • 9. Add 45 μL of FeCl2 solution into each wells and mix. • 10. Add 90 μL of MOX solution and mix. • 11. Incubate for 30 min at 60° C. • 12. Dilute the samples 2500× with EIA buffer. VI. EIA Assay • Perform the assay according to the procedure in EIA kit provided by Cayman. Total PGD2 levels (pg/mL) were determined in the samples by EIA kits (Caymen Chemical, Catalog No. 500151) Calculate Amount of PGD2 as Below • Calculated % Positive control according to the equation below; % Positive control=(Compound value−Negative control)/(Positive value−Negative control value)×100. […]

[2] = system: PGDS; settings: cited from earlier work
[3] = system: guinea pig; settings: guinea pig model; cited from earlier work
[4] = system: rat; settings: rat model; cited from earlier work

Chain of human h-PGDS (O60760 whole entry): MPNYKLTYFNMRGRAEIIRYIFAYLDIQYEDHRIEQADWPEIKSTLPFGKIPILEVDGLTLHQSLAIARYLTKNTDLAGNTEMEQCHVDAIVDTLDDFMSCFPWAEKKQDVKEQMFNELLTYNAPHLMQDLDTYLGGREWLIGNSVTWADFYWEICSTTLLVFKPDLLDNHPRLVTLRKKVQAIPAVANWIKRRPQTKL

Compound	IC50 [1]	further results
Cc1cn(NC(=O)c2cnc(-c3ccccn3)nc2C(F)(F)F)c2ccc(F)cc12 [Example 209, 2-Pyridin-2-yl-4-trifluoromethyl-pyrimidine-5-carboxylic acid (5-fluoro-3-methyl-indol-1-yl)-amide]	8 nM	–
O=C(NN1CCOc2ccc(F)cc21)c1cnc(-c2cccc(F)c2)nc1 [Example 211, 2-(3-Fluoro-phenyl)-pyrimidine-5-carboxylic acid (6-fluoro-2,3-dihydro-1,4-benzoxazin-4-yl)-amide]	12 nM	–
O=C(NN1CCOc2ccc(F)cc21)c1cnc(-c2ccccc2)nc1 [Example 212, 2-Phenyl-pyrimidine-5-carboxylic acid (6-fluoro-2,3-dihydro-1,4-benzoxazin-4-yl)-amide]	21 nM	–
Cc1nc(-c2cccc[n+]2[O-])ncc1C(=O)Nn1cc(C)c2cc(F)ccc21 [Example 225, 4-Methyl-2-(1-oxy-pyridin-2-yl)-pyrimidin-5-carboxylic acid (5-fluoro-3-methyl-indol-1-yl)-amide]	851 nM	–
Cc1cn(NC(=O)c2cnc(-c3cccc(C(F)F)c3)nc2)c2ccc(F)cc12 [Example 226, 2-(3-Difluoromethyl-phenyl)-pyrimidine-5-carboxylic acid (5-fluoro-3-methyl-indol-1-yl)-amide]	17 nM	–
Cc1cn(NC(=O)c2cnc(-c3cccc(C(F)(F)F)c3)nc2)c2ccc(F)cc12 [Example 227, 2-(3-Trifluoromethyl-phenyl)-pyrimidine-5-carboxylic acid (5-fluoro-3-methyl-indol-1-yl)-amide]	262 nM	–
c1ccc(C(OC2CCN(CCCc3nn[nH]n3)CC2)c2ccccc2)cc1 [HQL-79]	–	PGDS inhibition [2]: weak PGDS inhibitor; antiasthmatic effect [3]: antiasthmatic; antiasthmatic effect [4]: antiasthmatic
